# Results reported in PMC6148290, “Endogenous metabolites of vitamin E limit inflammation by targeting 5-lipoxygenase” (Nature Communications, 2018).
# Experiments:
# COX-2 = target: T1, COX-2 (Homo sapiens, UniProt P35354); assay: COX-2-dependent PGE2 formation in LPS-activated monocytes; format: cell-based; set-up: endogenous in cells; host or cells: human monocytes, LPS-stimulated for 24 h; details: up to 10 µM
# T1 sequence (P35354 18-604): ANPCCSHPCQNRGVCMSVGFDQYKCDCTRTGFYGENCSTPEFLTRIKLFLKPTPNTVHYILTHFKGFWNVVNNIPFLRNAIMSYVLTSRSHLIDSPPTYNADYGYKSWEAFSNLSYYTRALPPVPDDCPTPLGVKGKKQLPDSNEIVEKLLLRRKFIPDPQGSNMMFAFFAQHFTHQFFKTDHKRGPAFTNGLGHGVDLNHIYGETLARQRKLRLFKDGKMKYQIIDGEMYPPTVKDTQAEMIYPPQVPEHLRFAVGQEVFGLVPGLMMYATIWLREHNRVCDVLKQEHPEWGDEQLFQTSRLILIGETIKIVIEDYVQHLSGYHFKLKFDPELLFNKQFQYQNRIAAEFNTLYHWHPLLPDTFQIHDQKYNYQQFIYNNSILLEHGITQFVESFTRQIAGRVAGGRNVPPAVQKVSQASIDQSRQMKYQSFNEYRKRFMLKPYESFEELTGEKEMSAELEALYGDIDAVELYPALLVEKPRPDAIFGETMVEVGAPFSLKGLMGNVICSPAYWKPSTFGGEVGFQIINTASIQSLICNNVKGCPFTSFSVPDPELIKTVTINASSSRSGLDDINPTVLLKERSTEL
# Procedure: Cells were washed and medium was exchanged. Freshly isolated PMNL (1 × 10^7) and stably transfected HEK-293 (1 × 10^6) cells were suspended in PBS pH 7.4 containing 1 mg/ml glucose and 1 mM CaCl2. […] A23187- and A23187/AA-treated PMNL and A23187/AA-treated HEK-293 (5-LO_wt), HEK-293 (5-LO_3W) and HEK-293 (5-LO_Arg101Asp) cells produced 135 ± 21, 636 ± 112, 300 ± 59, 133 ± 29, 55 ± 9 ng 5-LO products, respectively. PMNL synthesized 29 ± 6 ng 12-HETE and 97 ± 23 ng 15-HETE when challenged with A23187/AA. 5-LO products from monocytes were analyzed by UPLC-MS/MS.
# (§1) LPS-activated monocytes were treated with A23187 (2.5 µM) and AA (20 µM) to induce lipid mediator biosynthesis as described for LO product formation. Human blood was pre-incubated with vehicle (DMSO) or α-T-13′-COOH (4a, 100 nM) for 10 min, primed with LPS (1 µg/ml) for 30 min and stimulated with N-formyl-methionyl-leucyl-phenylalanine (fMLP, Sigma-Aldrich; 1 µM) for 15 min at 37 °C.
# [1] = target: T2, human microsomal prostaglandin E2 synthase (mPGES)-1 (Homo sapiens, UniProt O14684); assay: mPGES-1 activity in microsomal preparations of IL-1β-treated A549 cells
# T2 sequence (O14684 1-152): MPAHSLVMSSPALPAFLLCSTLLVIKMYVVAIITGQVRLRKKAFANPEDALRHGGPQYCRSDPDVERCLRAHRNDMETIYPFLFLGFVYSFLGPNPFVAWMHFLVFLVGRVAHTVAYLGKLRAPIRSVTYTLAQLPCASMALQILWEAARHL
# Procedure: Microsomal membranes of interleukin-1β-treated A549 cells were prepared as source of mPGES-1[67]. […] Ice-cold homogenization buffer (0.1 M potassium phosphate buffer pH 7.4, 1 mM phenylmethanesulphonyl fluoride, 60 µg/ml soybean trypsin inhibitor, 1 µg/ml leupeptin, 2.5 mM glutathione, and 250 mM sucrose) was added, and cells were incubated for 15 min on ice prior to sonication (3 × 20 s, 4 °C). […] Microsomes were suspended in homogenization buffer and diluted in potassium phosphate buffer (0.1 M, pH 7.4) containing 2.5 mM glutathione. Membranes (2.5–5 µg total protein) were pre-incubated with LCMs for 15 min at 4 °C, and PGE2 formation was initiated by addition of PGH2 (20 µM, final concentration). The reaction was terminated after 1 min by addition of one volume stop solution (40 mM FeCl2, 80 mM citric acid and 1 nmol of the internal standard 11β-PGE2, Cayman Chemicals).
# 15-LO = 15-LO product formation in A23187/AA-activated PMNL; format: cell-based, human; details: at 3 µM; mean ± s.e.m., n = 3; n.i. no inhibition
# LTB4 formation = LTB4 formation in LPS/fMLP-stimulated human blood; format: cell-based; details: 100 nM
# Procedure: as §1
# 12-LO = target: T3, 12-LO (Homo sapiens, UniProt P18054); assay: 12-LO product formation in A23187/AA-activated PMNL; format: cell-based
# T3 construct: 12-HETE (12-LO product from platelets in PMNL preparations); endogenous in cells; host or cells: platelets contaminating human PMNL preparations
# T3 sequence (P18054 1-663): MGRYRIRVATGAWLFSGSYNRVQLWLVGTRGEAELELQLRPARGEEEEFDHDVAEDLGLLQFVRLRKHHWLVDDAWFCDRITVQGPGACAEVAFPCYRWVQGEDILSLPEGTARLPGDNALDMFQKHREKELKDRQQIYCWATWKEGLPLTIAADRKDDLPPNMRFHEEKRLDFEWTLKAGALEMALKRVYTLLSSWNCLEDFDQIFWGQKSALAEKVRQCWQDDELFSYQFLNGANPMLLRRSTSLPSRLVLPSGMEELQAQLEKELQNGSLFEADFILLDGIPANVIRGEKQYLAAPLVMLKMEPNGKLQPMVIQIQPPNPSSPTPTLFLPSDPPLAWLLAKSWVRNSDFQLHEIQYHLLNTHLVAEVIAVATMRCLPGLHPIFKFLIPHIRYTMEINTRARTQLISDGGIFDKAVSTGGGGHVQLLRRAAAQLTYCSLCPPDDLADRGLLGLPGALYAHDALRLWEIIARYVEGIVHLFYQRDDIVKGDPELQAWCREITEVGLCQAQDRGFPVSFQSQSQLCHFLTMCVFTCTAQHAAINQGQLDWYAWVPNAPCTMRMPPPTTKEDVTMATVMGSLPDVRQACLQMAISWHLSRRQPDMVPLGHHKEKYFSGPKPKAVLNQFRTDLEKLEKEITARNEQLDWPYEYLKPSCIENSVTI
# [2] = test system: zymosan-induced murine peritonitis; assay: Zymosan-induced peritonitis in mice; format: in vivo, mouse; details: 10 mg/kg i.p.
# Procedure: Mice were killed by inhalation of CO2 after another 30 min for determination of LTC4 levels and vascular permeability and after 4 h for the analysis of LTB4 levels, lipidomic profiles and immune cell infiltration. Cell infiltration and lipid mediator profiles during resolution were studied after 18 h. Peritoneal exudates were collected and cells counted after vital trypan blue staining. LTC4, LTB4, and PGE2 were analyzed in the exudate by enzyme immunoassays (Enzo Life Sciences, Lörrach, Germany) according to manufacturer's instructions. To assess vascular permeability, Evans blue dye (40 mg/kg in saline, 0.3 ml; Sigma-Aldrich) was injected into the tail vain immediately before the induction of peritonitis. Exudates were centrifuged (3000 × g, 5 min) and the absorbance of the supernatants was measured at 610 nm using a Beckman Coulter DU730 spectrophotometer. To investigate the effect of α-T (1a) on the accumulation of α-T-13'-COOH (4a) in infiltrated leukocytes after peritonitis has been established, vehicle or α-[…].) were given 1 h before and/or 4 h post zymosan injection, and mice were killed after another 1.5 h. Leukocytes were obtained from peritoneal exudates by centrifugation (1200 × g, 10 min, 4 °C).
smiles,measurement,setting,value
"Cc1c(C)c2c(c(C)c1O)CC[C@@](C)(CCCC(C)CCCC(C)CCCC(C)C(=O)O)O2 (stereo partly drawn) [4a, 13-((2R)-6-hydroxy-2,5,7,8-tetramethylchroman-2-yl)-2,6,10-trimethyltridecanoic acid]",inhibition of COX-2-dependent PGE2 formation in activated human monocytes,COX-2,not inhibited
same,IC50,[1],8.8 µM
same,"15-LO product formation/PMNL, residual activity",15-LO,52.6 ± 20.3 % of control
same,effect on LTB4 formation in activated human blood,LTB4 formation,inhibited
same,IC50,12-LO,> 3 µM
same,"12-LO product formation/PMNL, residual activity","12-LO; at 3 µM, mean ± s.e.m., n = 3, n.i. no inhibition",55.3 ± 1.7 % of control
same,vascular permeability,[2]; 30 min post zymosan,reduced
same,LTC4 levels in the exudate,"[2]; 30 min post zymosan, ELISA",strongly decreased
same,immune cell infiltration into the peritoneal cavity,[2]; 4 h post zymosan,impaired
same,LTB4 levels in the exudate,"[2]; 4 h post zymosan, ELISA",impaired
same,circulating resolvin E3 in plasma,[2]; 18 h post zymosan,strongly increased
same,suppressive effect on cell infiltration at the resolution phase,[2]; 18 h post zymosan,vanished
